Measurements taken from patent US20250205276A1, “COMPOSITIONS AND METHODS OF TREATMENT OF DISEASE USING COMBINATION OF A NITRODILATOR AND A NITROGEN OXIDE COMPOUND” (LOMA LINDA UNIVERSITY, priority 2022, published 2025).
Read-outs that look alike come from different tables or passages of the source.

What was measured:
intact sheep = assay: Femoral vasodilation in intact sheep treated with L-NAME; type: in vivo; details: for femoral vasodilation in response to the SNO: sheep treated with L-NAME
coronary arteries = tested on: coronary arteries
Text: SNOs, DNICs, heme-NO, nitroprusside, NTG, and other nitrodilators, dilate vessels via activation of soluble guanylyl cyclase (sGC) in vascular smooth muscle cells. These nitrodilators have potent NO-mimetic vasoactivities despite not releasing requisite amounts of free NO. These nitrodilators activate sGC via a preformed NANOS found within the vascular smooth muscle cell. Other examples of the nitrodilators include, but are not limited to, isosorbide dinitrate, isosorbide mononitrate, and nitrosyl complexes with metals or metalloproteins with metals other than iron.

intact rats = assay: Femoral vasodilation in intact rats treated with L-NAME; type: in vivo; details: for femoral vasodilation in response to the SNO: rats treated with L-NAME
newborn lambs = details: low micromolar intravenous nitrite
[1] = tested on: isolated sheep femoral arteries; assay: Use-dependent loss of vasodilatory response to GSNO in isolated arteries, potentiation and reversal; type: cell-based
Description: To increase the store experimentally, isolated sheep femoral arteries were pre-exposed to 1 μM nitrite, a concentration two-to-three orders of magnitude below which nitrite itself causes vasodilation.

[2] = tested on: mesenteric vasculature of rats; assay: Mesenteric vasodilatory response to nitrodilators after chronic pretreatment of rats; type: in vivo; details: for effect of pretreatment on mesenteric vasodilatory response to nitrodilators: pretreatment for four days
Description: (§1) Likewise, NTG has been thought to activate sGC by releasing the NO moiety from its nitrate group via the action of enzymes such as aldehyde dehydrogenase-2. However, this conversion produces nitrite rather than NO, especially at therapeutic NTG concentrations (<1 μM).

sGC-cGMP pathway = assay: Potentiation of nitrodilator vasodilation by sGC-cGMP pathway agents in vitro; type: cell-based
Text: In certain embodiments, the combined application of a nitrodilator and a nitrogen oxide compound is affected by a perturbation in the sGC-cGMP pathway. Vasodilation mediated by the nitrodilator and/or nitrogen oxide compound can be further facilitated by agents that enhance the sGC-cGMP pathway. Such agents include sGC stimulators and activators, cGMP-phosphodiesterase inhibitors, and others. The sGC stimulators directly activate reduced-heme-containing sGC that generates cGMP to cause vasodilation. The sGC activators activate sGC when the heme is oxidized or the heme moiety is missing. A sGC stimulator can be riociguat or vericiguat. The sGC activator can be runcaciguat, cinaciguat, ataciguat, or kynurenine. The cGMP-phosphodiesterase inhibitors, such as sildenafil, vardenafil, and tadalafil, stabilize cGMP via preventing its degradation by phosphodiesterase-5. […] Certain embodiments include methods of treating a vascular condition or a respiratory condition in a human subject by administering a therapeutically effective amount of a nitrogen oxide compound and a cGMP-phosphodiesterase inhibitor. […] The potentiation effects of riociguat and sildenafil on vasodilation by nitrodilators including GSNO have been confirmed in vitro.

[3] = not told
isolated arteries = assay: Vasodilation of isolated arteries (potency, sustainability); type: cell-based; details: read-out: EC50 (vasodilatory sensitivity)
Description: as §1

[4] = tested on: isolated sheep mesenteric arteries; assay: Relaxation of endothelium-denuded sheep mesenteric arteries contracted with 5-HT; type: cell-based; details: for enabling of inhibition of vasodilation by CPTIO: SOD1 1000 U/ml, converts HNO into NO
Description: Isolated sheep mesenteric arteries were denuded of endothelium and contracted with 10 μM 5-HT (n=5). FIG. 5A presents examples of relaxation traces (one animal, six arterial strips) of NTG in the absence and presence of an sGC inhibitor (ODQ) (10 μM) or superoxide dismutase (SOD1) (1000 U/ml, converts HNO into NO), or the extracellular NO scavenger CPTIO (200 μM), or SOD1 and CPTIO together. All traces were normalized for comparison of extent of relaxation.
FIG. 5B is a graphical representation of the amplification of the area in the red circle in ‘A’. FIG. 5C is a graphical representation of the effects of SOD1, CPTIO, SOD1+CPTIO, and ODQ on relaxation in response to Nitroglycerin. FIG. 5D is a graphical representation of the effects of SOD1, CPTIO, and SOD1+CPTIO on relaxation in response to nitrosoglutathione (GSNO). SOD1, via putative conversion of HNO to NO, enables the inhibitory effects of CPTIO on relaxation caused by NTG and GSNO.
As discussed above, there are reasons to doubt whether NO itself is the mediator of sGC activation in the NANOS model. Rather, an equivalent of NO may be released by activation of the NANOS. […] The NO equivalent has HNO-like characteristics. […] Isolated sheep mesenteric arteries were denuded of endothelium and contracted with 10 μM 5-HT (n=5). FIG. 5A presents examples of relaxation traces (one animal, six arterial strips) of NTG in the absence and presence of an sGC inhibitor (ODQ) (10 μM) or superoxide dismutase (SOD1) (1000 U/ml, converts HNO into NO, or the extracellular NO scavenger CPTIO (200 μM), or SOD1 and CPTIO together. All traces were normalized for comparison of extent of relaxation. FIG. 5B is a graphical representation of the amplification of the area in the red circle in ‘A’. FIG. 5C is a graphical representation of the effects of SOD1, CPTIO, SOD1+CPTIO, and ODQ on relaxation in response to Nitroglycerin (NTG). FIG. 5D is a graphical representation of the effects of SOD1, CPTIO, and SOD1+CPTIO on relaxation in response to nitrosoglutathione (GSNO). SOD1, via putative conversion of HNO to NO, enables the inhibitory effects of CPTIO on relaxation caused by NTG and GSNO.

[5] = cited from earlier work; for membrane permeability in words: Hogg et al
[6] = Ability to release NO / stability
sheep carotid artery = assay: Mobilization of N15-NOx from sheep carotid artery by intraluminal GSNO (GC-MS); details: 2 h, vs control
Description: FIG. 4A is an illustration of the protocol. A sheep carotid artery (length 8 cm) was incubated with 10 μM N^15-nitrite in DMEM under 10.5% O2 for 6 h to load the vessel with N^15-NOx (NO metabolites). FIG. 4B is an illustration of the prepared vessels. After extensive washes, the arteries were well sealed and incubated for 2 h with 3 ml 100 μM oxyhemoglobin in HEPES buffer on the extraluminal side and 5 μM GSNO or control (0.7 ml HEPES buffer containing 0.1 mM DTPA) on the luminal side. FIG. 4C is a graphical representation of the response of the arteries exposed to GSNO. The N^15-NOx levels were lower (p=0.0206) in the homogenate of arteries exposed to GSNO. FIG. 4D is a graphical representation of the response of the arteries exposed to intraluminal GSNO. The N^15-NOx in extraluminal buffer was higher (p=0.0400) in the arteries exposed to intraluminal GSNO. N^15-NOx was measured by GC-MS. The results are consistent with intraluminal GSNO stimulating an efflux of NOx from the vascular smooth muscle as manifested by a decrease in intracellular NOx and an increase in extracellular NOx.
DNICs function as an intracellular NO store. NO can be stored as DNICs in ferritin, a cytosolic protein that stores and releases iron in controlled fashion. […] N^15-NOx was measured by GC-MS. […]

For `O=NO` [nitrite], the “effect on vasodilatory responses to subsequent SNO infusions in femoral arteries” value (intact sheep; sheep pre-treated with L-NAME, intravenous sub-vasodilatory nitrite) was “potentiated”, the “effect on NTG tolerance of coronary arteries” value (coronary arteries; in vitro) was “reverting NTG tolerance” and the “effect on NTG tolerance of coronary arteries” value (coronary arteries; in vivo) was “reverting NTG tolerance”. The “effect on vasodilatory responses to subsequent SNO infusions in femoral arteries” value (intact rats; rats pre-treated with L-NAME, intravenous sub-vasodilatory nitrite) was “potentiated”, the “effect on GSNO-mediated vasodilation” value (newborn lambs) was “potentiate” and the “effect on vasodilatory responses to GSNO” value ([1]; arteries pre-exposed to 1 μM nitrite) was “potentiate”. For the same molecule, the “attenuation of vasodilatory response to GSNO after repeated GSNO exposure” value ([1]; subsequent incubation with 1 μM nitrite for 30 min) was “reversed”.

In the case of `COC(=O)[C@H](N)CCCNC(=N)N[N+](=O)[O-]` [D-NAME, D-NG-Nitro arginine methyl ester], the “effect of chronic pretreatment on mesenteric vasodilation by GSNO, glut-BDNIC and NTG” value [2] is reported as “potentiated” and the “effect of pretreatment on mesenteric vasodilatory response to nitrodilators” value (“effect of pretreatment” for short) [2] is reported as “potentiated”.

In the case of `CCCc1nn(C)c2c(=O)[nH]c(-c3cc(S(=O)(=O)N4CCN(C)CC4)ccc3OCC)nc12` [sildenafil], the “effect on vasodilation by nitrodilators including GSNO” value (sGC-cGMP pathway) is reported as “potentiation”.

With `O=[N+]([O-])OCC(CO[N+](=O)[O-])O[N+](=O)[O-]` [NTG, nitroglycerin] the Membrane permeability [3] was “+” and the EC50 (isolated arteries) was less than 100 nM.

With `CC1(C)CC(O)CC(C)(C)N1[O]` [TEMPOL] the “enabling of inhibition of vasodilation by CPTIO” value [4] was “enable the inhibitory effects of CPTIO”.

For `N[C@@H](CSN=O)C(=O)O` [L-cysNO, S-nitrosocysteine], the “femoral vasodilation in response to the SNO” value (“femoral vasodilation” for short) (intact sheep) was “greatly diminished or even absent”, the Membrane permeability [3] was “+” and the “femoral vasodilation” value (intact rats) was “greatly diminished or even absent”. For the same molecule, the “membrane permeability in words” value [5] was “can be taken up into cells via the L-type amino acid transporter (LAT)”, the NO moiety released ([6]; over one hour, presence of metal chelator in PBS) was less than 10% and the “stability, fold less stable than GSNO” value ([6]; relative to GSNO) was 10 fold.

In the case of `CC1(C)N([O])C(c2ccc(C(=O)O)cc2)=[N+]([O-])C1(C)C` [CPTIO], the “effect on NTG- or GSNO-mediated relaxation” value ([4]; CPTIO 200 μM) is reported as “does not affect”.

In the case of “SOD1: superoxide dismutase, converts HNO into NO”, the “enabling of inhibition of vasodilation by CPTIO” value [4] is reported as “enables inhibition of vasodilation by CPTIO”.

In the case of `[Cl][Cu]` [CuCl], the “enabling of inhibition of vasodilation by CPTIO” value [4] is reported as “enable the inhibitory effects of CPTIO”.

In the case of `CNC(=N)NCCC[C@H](N)C(=O)O` [L-NMMA], the “effect of pretreatment” value [2] is reported as “not observed”.

In the case of `N[C@@H](CCC(=O)N[C@@H](CSN=O)C(=O)NCC(=O)O)C(=O)O` [GSNO, S-nitroso-glutathione], the “N15-NOx levels in homogenate of arteries” value (sheep carotid artery; 5 μM GSNO luminal side, p=0.0206) is reported as “lower”, the “N15-NOx in extraluminal buffer” value (sheep carotid artery; 5 μM intraluminal GSNO, p=0.0400) is reported as “higher” and the “femoral vasodilation” value (intact sheep) is reported as “greatly diminished or even absent”. The Membrane permeability [3] was “−”, the “femoral vasodilation” value (intact rats) was “greatly diminished or even absent” and the “membrane permeability in words” value [5] was “largely membrane-impermeable”. The “membrane permeability, fold less than L-cysNO” value ([5]; relative to L-cysNO) was 200 fold and the “loss of initial vasodilatory response to GSNO” value ([1]; isolated vessels, after repeated exposures to GSNO) was roughly 50%.

In the case of `COC(=O)N(C)c1c(N)nc(-c2nn(Cc3ccccc3F)c3ncccc23)nc1N` [riociguat], the “effect on vasodilation by nitrodilators including GSNO” value (sGC-cGMP pathway) is reported as “potentiation”.

With `C=CC1=C(C)c2cc3[n-]c(cc4[n-]c(cc5nc(cc1n2)C(C)=C5C=C)c(C)c4CCC(=O)[O-])c(CCC(=O)[O-])c3C.N#[O+].[Fe].[H+].[H+]` [Heme-NO, nitrosyl-heme] the Membrane permeability [3] was “−”.

With `COC(=O)[C@@H](N)CCCNC(=N)N[N+](=O)[O-]` [L-NAME] the “effect of chronic pretreatment on mesenteric vasodilation by GSNO, glut-BDNIC and NTG” value [2] was “potentiated” and the “effect of pretreatment” value [2] was “potentiated”.

In the case of `N[C@H](CSN=O)C(=O)O` [D-cysNO], the “femoral vasodilation” value (intact sheep) is reported as “greatly diminished or even absent”, the Membrane permeability [3] is reported as “−” and the “femoral vasodilation” value (intact rats) is reported as “greatly diminished or even absent”. For the same molecule, the “membrane permeability in words” value [5] was “largely membrane-impermeable”.
